Non-standard residues stand in square brackets, D forms with d. Residues, ends and D or L forms follow the SMILES beside them. *: point of attachment. pNA = O=[N+]([O-])c1ccc(N*)cc1

This is an account of results in publication PMC10531319, “Hemostatically Active Proteinase Produced by Aspergillus ochraceus: Key Specific Properties and Effect on Target Proteins” (International Journal of Molecular Sciences, 2023).

The assay has as its system T1, A. ochraceus proteinase.
T1 construct: native extracellular enzyme from culture liquid; about 35 kDa, non-glycosylated
The experiment in a line: chromogenic assay, pNA release at […] nm, Lineweaver-Burk and Eadie-Hofstee plots. The note with it: 0.05 M Tris-HCl pH 8.2, 37 °C; substrate 0.25-2.0 mg/mL. The format is biochemical, Aspergillus ochraceus.

As for `CC(C)C[C@@H](N)C(=O)N[C@@H](CCCCN)C(=O)Nc1ccc([N+](=O)[O-])cc1` [H-D-Leu-Lys-pNA] (H-[dL]-Lys-pNA), the Km was 3.48 mM.

Usually Km stands for the concentration of substrate that gives half-maximal velocity.
